Source: patent US12350475B2 (SUN PHARMACEUTICAL INDUSTRIES LIMITED, priority 2020, dated 2025)
Counter-ions that a name gives are not always drawn.

Columns and labels:
[1] = distribution of octreotide in blood (erythrocytes, plasma binding)
Text: (§1) For patients with acromegaly, there may be a different pharmacokinetic profile.

[2] = pharmacokinetics of octreotide after subcutaneous dosing in patients with acromegaly
Text: as §1

[3] = pharmacokinetics of octreotide after subcutaneous injection
Text: as §1

With `C[C@@H](O)[C@@H]1NC(=O)[C@H](CCCCN)NC(=O)[C@@H](Cc2c[nH]c3ccccc23)NC(=O)[C@H](Cc2ccccc2)NC(=O)[C@@H](NC(=O)[C@H](N)Cc2ccccc2)CSSC[C@@H](C(=O)N[C@H](CO)[C@@H](C)O)NC1=O` (relative stereo) [octreotide, L-cysteinamide, D-phenylalanyl-L-cysteinyl-L-phenylalanyl-D-tryptophyl-L-lysyl-L-threonyl-N-[2-hydroxy-1-(hydroxymethyl)propyl]-, cyclic (2#7)-disulfide; [R—(R*, R*)] acetate salt] the “bound in the plasma” value ([1]; concentration-independent manner) was “about 65%”, the “distribution into the erythrocytes” value ([1]; in blood) was “negligible” and the Vd ([2]; human, in vivo, subcutaneous) was roughly 21.6 L. The clearance ([2]; human, in vivo, subcutaneous) was roughly 300 mL/min, the “time to mean peak concentration after subcutaneous dosing” value ([2]; patients with acromegaly, 100 μg dose) was “about 0.7 hours” and the mean peak concentration ([2]; patients with acromegaly, subcutaneous, 100 μg dose) was “about 2.8 ng/mL”. For the same molecule, the “absorption from the injection site” value ([3]; after subcutaneous injection) was “absorbed completely”, the Vd ([3]; human, plasma, subcutaneous) was roughly 13.6 L and the clearance ([3]; human, plasma, subcutaneous) was 117 to 167 mL/min. For the same molecule, the “dose proportionality of peak concentrations and area under the curve values” ([3]; subcutaneous single doses up to 500 μg and multiple doses up to 500 μg three times a day (1,500 μg/day)) was “dose proportional”, the peak concentration ([3]; subcutaneous, dose of 100 μg) was “about 5.2 ng/mL” and the “time to peak concentration after dosing” value ([3]; subcutaneous, dose of 100 μg) was 0.4 h.
